Reference: the NIST ThermoML archive (doi:10.1016/j.jct.2012.06.012)
± gives the expanded uncertainty stated by the source.

Test: xn = mol fraction of the nth substance listed
Details: Liquid, Vibrating tube method

## CCCCCCCCCC [decane] + CCO
342.86 K, 16000 kPa, x2 = 0.7526
  mass density: 727.54 ± 0.4 kg/m3
342.86 K, 16000 kPa, x2 = 0.9014
  mass density: 742.82 ± 0.38 kg/m3
342.86 K, 17000 kPa, x2 = 0.7526
  mass density: 728.5 ± 0.42 kg/m3
342.86 K, 17000 kPa, x2 = 0.9014
  mass density: 743.79 ± 0.4 kg/m3
342.86 K, 18000 kPa, x2 = 0.7526
  mass density: 729.43 ± 0.43 kg/m3
342.86 K, 18000 kPa, x2 = 0.9014
  mass density: 744.74 ± 0.41 kg/m3
342.86 K, 19000 kPa, x2 = 0.7526
  mass density: 730.35 ± 0.44 kg/m3
342.86 K, 19000 kPa, x2 = 0.9014
  mass density: 745.67 ± 0.42 kg/m3
342.86 K, 20000 kPa, x2 = 0.7526
  mass density: 731.26 ± 0.45 kg/m3
342.86 K, 20000 kPa, x2 = 0.9014
  mass density: 746.59 ± 0.43 kg/m3
342.93 K, 1000 kPa, x2 = 0.2507
  mass density: 693.16 ± 0.22 kg/m3
342.93 K, 2000 kPa, x2 = 0.2507
  mass density: 694.23 ± 0.24 kg/m3
342.93 K, 3000 kPa, x2 = 0.2507
  mass density: 695.28 ± 0.25 kg/m3
342.93 K, 4000 kPa, x2 = 0.2507
  mass density: 696.32 ± 0.27 kg/m3
342.93 K, 5000 kPa, x2 = 0.2507
  mass density: 697.34 ± 0.28 kg/m3
342.93 K, 6000 kPa, x2 = 0.2507
  mass density: 698.35 ± 0.3 kg/m3
342.93 K, 7000 kPa, x2 = 0.2507
  mass density: 699.37 ± 0.31 kg/m3
342.93 K, 8000 kPa, x2 = 0.2507
  mass density: 700.38 ± 0.32 kg/m3
342.93 K, 9000 kPa, x2 = 0.2507
  mass density: 701.37 ± 0.34 kg/m3
342.93 K, 10000 kPa, x2 = 0.2507
  mass density: 702.36 ± 0.35 kg/m3
342.93 K, 11000 kPa, x2 = 0.2507
  mass density: 703.34 ± 0.36 kg/m3
342.93 K, 12000 kPa, x2 = 0.2507
  mass density: 704.32 ± 0.38 kg/m3
342.93 K, 13000 kPa, x2 = 0.2507
  mass density: 705.28 ± 0.39 kg/m3
342.93 K, 14000 kPa, x2 = 0.2507
  mass density: 706.23 ± 0.41 kg/m3
342.93 K, 15000 kPa, x2 = 0.2507
  mass density: 707.16 ± 0.42 kg/m3
342.93 K, 16000 kPa, x2 = 0.2507
  mass density: 708.07 ± 0.43 kg/m3
342.93 K, 17000 kPa, x2 = 0.2507
  mass density: 708.97 ± 0.45 kg/m3
342.93 K, 18000 kPa, x2 = 0.2507
  mass density: 709.85 ± 0.46 kg/m3
342.93 K, 19000 kPa, x2 = 0.2507
  mass density: 710.72 ± 0.47 kg/m3
342.93 K, 20000 kPa, x2 = 0.2507
  mass density: 711.57 ± 0.48 kg/m3
352.68 K, 1000 kPa, x2 = 0.9014
  mass density: 717.22 ± 0.21 kg/m3
352.68 K, 2000 kPa, x2 = 0.9014
  mass density: 718.43 ± 0.22 kg/m3
352.68 K, 3000 kPa, x2 = 0.9014
  mass density: 719.64 ± 0.24 kg/m3
352.68 K, 4000 kPa, x2 = 0.9014
  mass density: 720.84 ± 0.25 kg/m3
352.68 K, 5000 kPa, x2 = 0.9014
  mass density: 722.04 ± 0.26 kg/m3
352.68 K, 6000 kPa, x2 = 0.9014
  mass density: 723.23 ± 0.27 kg/m3
352.68 K, 7000 kPa, x2 = 0.9014
  mass density: 724.41 ± 0.29 kg/m3
352.68 K, 8000 kPa, x2 = 0.9014
  mass density: 725.57 ± 0.3 kg/m3
352.68 K, 9000 kPa, x2 = 0.9014
  mass density: 726.72 ± 0.31 kg/m3
352.68 K, 10000 kPa, x2 = 0.9014
  mass density: 727.86 ± 0.32 kg/m3
352.68 K, 11000 kPa, x2 = 0.9014
  mass density: 728.99 ± 0.34 kg/m3
352.68 K, 12000 kPa, x2 = 0.9014
  mass density: 730.09 ± 0.35 kg/m3
352.68 K, 13000 kPa, x2 = 0.9014
  mass density: 731.17 ± 0.36 kg/m3
352.68 K, 14000 kPa, x2 = 0.9014
  mass density: 732.26 ± 0.37 kg/m3
352.68 K, 15000 kPa, x2 = 0.9014
  mass density: 733.32 ± 0.38 kg/m3
352.68 K, 16000 kPa, x2 = 0.9014
  mass density: 734.36 ± 0.4 kg/m3
352.68 K, 17000 kPa, x2 = 0.9014
  mass density: 735.39 ± 0.41 kg/m3
352.68 K, 18000 kPa, x2 = 0.9014
  mass density: 736.4 ± 0.42 kg/m3
352.68 K, 19000 kPa, x2 = 0.9014
  mass density: 737.39 ± 0.43 kg/m3
352.68 K, 20000 kPa, x2 = 0.9014
  mass density: 738.36 ± 0.44 kg/m3
352.69 K, 1000 kPa, x2 = 0.0937
  mass density: 683.22 ± 0.23 kg/m3
352.69 K, 1000 kPa, x2 = 0.4963
  mass density: 689.92 ± 0.23 kg/m3
352.69 K, 2000 kPa, x2 = 0.0937
  mass density: 684.34 ± 0.25 kg/m3
352.69 K, 2000 kPa, x2 = 0.4963
  mass density: 691.07 ± 0.24 kg/m3
352.69 K, 3000 kPa, x2 = 0.0937
  mass density: 685.44 ± 0.26 kg/m3
352.69 K, 3000 kPa, x2 = 0.4963
  mass density: 692.22 ± 0.25 kg/m3
352.69 K, 4000 kPa, x2 = 0.0937
  mass density: 686.53 ± 0.27 kg/m3
352.69 K, 4000 kPa, x2 = 0.4963
  mass density: 693.37 ± 0.27 kg/m3
352.69 K, 5000 kPa, x2 = 0.0937
  mass density: 687.61 ± 0.29 kg/m3
352.69 K, 5000 kPa, x2 = 0.4963
  mass density: 694.5 ± 0.28 kg/m3
352.69 K, 6000 kPa, x2 = 0.0937
  mass density: 688.68 ± 0.3 kg/m3
352.69 K, 6000 kPa, x2 = 0.4963
  mass density: 695.63 ± 0.3 kg/m3
352.69 K, 7000 kPa, x2 = 0.0937
  mass density: 689.74 ± 0.32 kg/m3
352.69 K, 7000 kPa, x2 = 0.4963
  mass density: 696.75 ± 0.31 kg/m3
352.69 K, 8000 kPa, x2 = 0.0937
  mass density: 690.8 ± 0.33 kg/m3
352.69 K, 8000 kPa, x2 = 0.4963
  mass density: 697.86 ± 0.32 kg/m3
352.69 K, 9000 kPa, x2 = 0.0937
  mass density: 691.83 ± 0.35 kg/m3
352.69 K, 9000 kPa, x2 = 0.4963
  mass density: 698.96 ± 0.34 kg/m3
352.69 K, 10000 kPa, x2 = 0.0937
  mass density: 692.86 ± 0.36 kg/m3
352.69 K, 10000 kPa, x2 = 0.4963
  mass density: 700.06 ± 0.35 kg/m3
352.69 K, 11000 kPa, x2 = 0.0937
  mass density: 693.89 ± 0.37 kg/m3
352.69 K, 11000 kPa, x2 = 0.4963
  mass density: 701.13 ± 0.37 kg/m3
352.69 K, 12000 kPa, x2 = 0.0937
  mass density: 694.89 ± 0.39 kg/m3
352.69 K, 12000 kPa, x2 = 0.4963
  mass density: 702.2 ± 0.38 kg/m3
352.69 K, 13000 kPa, x2 = 0.0937
  mass density: 695.89 ± 0.4 kg/m3
352.69 K, 13000 kPa, x2 = 0.4963
  mass density: 703.25 ± 0.39 kg/m3
352.69 K, 14000 kPa, x2 = 0.0937
  mass density: 696.87 ± 0.42 kg/m3
352.69 K, 14000 kPa, x2 = 0.4963
  mass density: 704.28 ± 0.41 kg/m3
352.69 K, 15000 kPa, x2 = 0.0937
  mass density: 697.83 ± 0.43 kg/m3
352.69 K, 15000 kPa, x2 = 0.4963
  mass density: 705.29 ± 0.42 kg/m3
352.69 K, 16000 kPa, x2 = 0.0937
  mass density: 698.77 ± 0.44 kg/m3
352.69 K, 16000 kPa, x2 = 0.4963
  mass density: 706.29 ± 0.43 kg/m3
352.69 K, 17000 kPa, x2 = 0.0937
  mass density: 699.71 ± 0.46 kg/m3
352.69 K, 17000 kPa, x2 = 0.4963
  mass density: 707.26 ± 0.45 kg/m3
352.69 K, 18000 kPa, x2 = 0.0937
  mass density: 700.63 ± 0.47 kg/m3
352.69 K, 18000 kPa, x2 = 0.4963
  mass density: 708.23 ± 0.46 kg/m3
352.69 K, 19000 kPa, x2 = 0.0937
  mass density: 701.52 ± 0.49 kg/m3
352.69 K, 19000 kPa, x2 = 0.4963
  mass density: 709.17 ± 0.47 kg/m3
352.69 K, 20000 kPa, x2 = 0.0937
  mass density: 702.39 ± 0.5 kg/m3
352.69 K, 20000 kPa, x2 = 0.4963
  mass density: 710.11 ± 0.49 kg/m3
